Data taken from paper PMC11249646, “Small-Molecule Disruptors of the Interaction between Calcium- and Integrin-Binding Protein 1 and Integrin αIIbβ3 as Novel Antiplatelet Agents” (ACS Pharmacology & Translational Science, 2024).
pIC50: −log10 of the molar value. Where two headings read alike, the source gives them in different places.

Legend:
Type in all cases: binding
[1] = molecular target: T1, CIB1 and αIIb interaction (CIB1-GST : F-αIIb peptide) (Homo sapiens, UniProt Q99828); assay: FP assay, 1536-well qHTS format (primary and confirmatory screen); details: for CONFIRMATORY SCREEN Confirm?: YES/NO call; for CONFIRMATORY SCREEN Curve Class: qHTS curve class; for CONFIRMATORY SCREEN Curve Class / Curve Class: negative sign = inhibitory curve; for CONFIRMATORY SCREEN Efficacy (%) / Efficacy (%): negative = inhibition
T1 construct: made in house; host or cells: BL-21 plus RIL cells (E. coli)
T1 sequence (Q99828 1-191): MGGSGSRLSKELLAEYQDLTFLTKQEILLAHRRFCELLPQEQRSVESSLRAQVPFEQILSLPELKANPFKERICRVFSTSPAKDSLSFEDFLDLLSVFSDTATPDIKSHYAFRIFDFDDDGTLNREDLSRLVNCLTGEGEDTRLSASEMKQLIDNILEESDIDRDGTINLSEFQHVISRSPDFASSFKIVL

[2] = molecular target: T2, CIB1 and αIIb interaction (GST-CIB1 : F-αIIb peptide) (Homo sapiens, UniProt Q99828); assay: FP assay, 384-well format (screen); design: 384-well SCREEN Efficacy (%): concentration or dose not given beside the values; details: F-αIIb peptide; for pIC50: read-out: 384-well SCREEN IC50; for 384-well SCREEN Confirm?: YES/NO
T2 construct: made in house; host or cells: BL-21 plus RIL cells (E. coli)
T2 sequence (Q99828 1-191): T1 sequence (Q99828 1-191)

[3] = molecular target: T3, GST-CIB1 : F-scrambled peptide (Homo sapiens, UniProt Q99828); assay: FP scrambled-peptide counter screen, 1536-well format; details: scrambled-peptide counterscreen; for COUNTERSCREEN Confirm?: YES/NO call; for COUNTERSCREEN Curve Class: qHTS curve class; for pIC50: read-out: COUNTERSCREEN IC50
T3 construct: made in house; host or cells: BL-21 plus RIL cells (E. coli)
T3 sequence (Q99828 1-191): T1 sequence (Q99828 1-191)

[4] = molecular target: T3, GST-CIB1 : F-scrambled peptide; assay: FP scrambled-peptide counter screen, 384-well format; details: F-scrambled peptide; for pIC50: read-out: 384-well COUNTERSCREEN IC50; for 384-well COUNTERSCREEN Confirm?: *: Curve in opposite direction
[5] = qHTS FP screen hits, Table S2, read-out: IC50
[6] = confirmatory screen, read-out: CONFIRMATORY SCREEN IC50
[7] = qHTS primary screen hits, Table S2
[8] = qHTS primary screen hits, Table S2, several classes where COUNT > 1
[9] = qHTS primary screen hits, Table S2, read-out: IC50

Row | SMILES | CONFIRMATORY SCREEN Confirm? ([1]; confirmatory screen) | CONFIRMATORY SCREEN Curve Class ([1]; confirmatory screen) | CONFIRMATORY SCREEN Efficacy (%) ([1]; confirmatory screen) | Efficacy (%) ([1]; qHTS FP screen hits, Table S2) | pIC50 [1, 5] | 384-well SCREEN Efficacy (%) [2] [%] | pIC50 [2] | COUNTERSCREEN Efficacy (%) [3] [%] | COUNTERSCREEN Confirm? [3] | COUNTERSCREEN Curve Class [3] | 384-well COUNTERSCREEN Efficacy (%) [4] [%] | pIC50 [4] | pIC50 [1, 6] | Efficacy (%) [1, 7] [%] | Curve Class [1, 8] | pIC50 [1, 9] | 384-well SCREEN Confirm? [2] | 384-well COUNTERSCREEN Confirm? [4] | Curve Class [1, 7] | pIC50 [3]
1 | CCOC(=O)c1c(NC(=O)C2CC(Cl)=CCC2C(=O)O)sc2c1CCCCC2.O=C(O)C(F)(F)F (centres unmarked) [NCGC00238648-01] | YES | -2.2 | -59 | -22 | 4.45 | 15 | < 3.92 | 16 | YES | 4 | 12 | < 3.92 |  |  |  |  |  |  |  | 
2 | COC(=O)c1ccc2c(c1)S(=O)(=O)N=C2Sc1cc(C)ccc1C [NCGC00238687-01] | YES | -1.2 | -59 |  |  | 65 | 4.95 | -10 | YES | 4 | 45 | < 3.92 | 4.55 | -49 | -2.2 | 4.40 | YES | YES |  | 
3 | CCOC(=O)c1ccc(O)c2ncc(-c3ccc(C(=N)N)cc3)cc12.O=C(O)C(F)(F)F [NCGC00241050-01] | YES | -2.2 | -52 | -77 | 4.35 | 87 | 4.70 | -18 | YES | 4 | 77 |  |  |  |  |  | YES | Inconclusive |  | 
4 | Cc1cc(Nc2c(Nc3nnc(-c4ccncc4)s3)c(=O)c2=O)ccc1Cl.O=C(O)C(F)(F)F [NCGC00241510-01] | YES | -1.4 | -51 |  |  | 23 | < 3.92 | -33 | YES | -2.2 | 64 | < 3.92 | 4.95 | -35 |  | 4.40 |  |  | -2.4 | 4.35
5 | Cc1cc(NS(=O)(=O)c2ccc(NCCc3ccc(Cl)c(Cl)c3)cc2)no1.O=C(O)C(F)(F)F [NCGC00244100-02] | YES | -2.4 | -36 | -22 | 4.65 | 42 | 4.65 | 132 | YES | 3 | 23 | < 3.92 |  |  |  |  | YES | YES |  | 4.40
6 | Cc1ccc(Cl)cc1NC(=O)c1nc[nH]c1C(=O)Nc1nc2ccccc2[nH]1 [NCGC00244259-01] | YES | -1.2 | -28 |  |  | 48 | 4.95 | -15 | YES | 4 | 48 | 4.80 | 5.10 | -42 | -2.2 | 4.70 | YES |  |  | 
7 | O=C(Cc1ccc(Cl)c(Cl)c1)Nc1ccc(S(=O)(=O)Nc2ccon2)cc1.O=C(O)C(F)(F)F [NCGC00244858-03] | YES | -1.4 | -39 |  |  | 35 | 5.05 | -10 | YES | 4 | 43 | 4.60 | 4.65 | -27 |  | 5.49 | YES |  | -1.4 | 
8 | CCOC(=O)c1nnc(NS(=O)(=O)c2ccc(NC(=O)Cc3ccc(Cl)c(Cl)c3)cc2)s1.O=C(O)C(F)(F)F [NCGC00248354-01] | YES | -1.2 | -47 |  |  | 31 | 4.55 | 66 | YES |  | 20 | < 3.92 | 4.80 |  |  |  | YES | YES |  | 4.35
9 | O=C(Cc1ccc(Cl)c(Cl)c1)Nc1ccc(S(=O)(=O)Nc2nnc(-c3ccccn3)s2)cc1.O=C(O)C(F)(F)F [NCGC00248355-01] | YES | -2.1 | -132 |  |  | 44 | 4.95 | -73 | YES | -2.4 | 38 | < 3.92 | 4.45 | -50 | -1.2 | 4.60 | YES | YES |  | 4.10
